Experimental findings from ChEMBL document CHEMBL1143964, “Novel pyrazolo[1,5-a]pyrimidines as c-Src kinase inhibitors that reduce IKr channel blockade” (Bioorg Med Chem, 2008) are described below.

In data set [1] the target is T1, Proto-oncogene tyrosine-protein kinase Src (Homo sapiens, UniProt P12931). Nature of the data set: Inhibition of human cSrc.
The target in data set [2] is T1, Proto-oncogene tyrosine-protein kinase Src. Nature of the data set: Inhibition of human cSrc in COS7 cells by ELISA. It is filed as cell-based, COS-7.
Data set [3] addresses T2, IKr channel (Oryctolagus cuniculus, UniProt Q28705). Nature of the data set: Inhibition of Ikr channel in rabbit ventricular myocytes at 10 uM. It is filed as cell-based, Ventricular myocyte.
Data set [4] addresses T2, IKr channel. Nature of the data set: Inhibition of Ikr channel in rabbit ventricular myocytes at 30 uM.
Data set [5] can be described thus: Drug level in Sprague-Dawley rat plasma at 3 mg/kg, iv after 1 hr. It is filed as ADME, organism-based. On the set-up: dose 3 mg/kg, route intravenous.
The nature of data set [6]: Drug level in Sprague-Dawley rat brain at 3 mg/kg, iv after 1 hr. It is filed as ADME, organism-based. More on the design: dose 3 mg/kg, route intravenous. The following applies: read-out: Drug uptake.
The nature of data set [7]: Ratio of drug level in brain to plasma in Sprague-Dawley rat at 3 mg/kg, iv after 1 hr. It is filed as ADME, organism-based. More on the design: dose 3 mg/kg, route intravenous. Particulars: read-out: BPR.
For data set [8], the target named is Vascular endothelial growth factor receptor 2 (Homo sapiens, UniProt P35968). The experiment in a line: Inhibition of KDR.
A short description of data set [9]: AUC (0 to infinity) in Sprague-Dawley rat middle cerebral artery occlusion model at 3 mg/kg, iv. More on the design: time infinity, dose 3 mg/kg, route intravenous. The following applies: in vivo. It is filed as ADME, organism-based.
The nature of data set [10]: Half life in Sprague-Dawley rat middle cerebral artery occlusion model at 3 mg/kg, iv. It is filed as ADME, organism-based. More on the design: dose 3 mg/kg, route intravenous. Particulars: in vivo.
Data set [11] can be described thus: Clearance in Sprague-Dawley rat middle cerebral artery occlusion model at 3 mg/kg, iv. Particulars: in vivo. It is filed as ADME, organism-based. On the set-up: dose 3 mg/kg, route intravenous.
A short description of data set [12]: Volume of distribution at steady state in Sprague-Dawley rat middle cerebral artery occlusion model at 3 mg/kg, iv. It is filed as ADME, organism-based. On the set-up: dose 3 mg/kg, route intravenous. The following applies: in vivo, read-out: Vdss.
The target in data set [13] is T3, Tyrosine-protein kinase ZAP-70 (Homo sapiens, UniProt P43403).
T3 sequence (P43403 whole entry): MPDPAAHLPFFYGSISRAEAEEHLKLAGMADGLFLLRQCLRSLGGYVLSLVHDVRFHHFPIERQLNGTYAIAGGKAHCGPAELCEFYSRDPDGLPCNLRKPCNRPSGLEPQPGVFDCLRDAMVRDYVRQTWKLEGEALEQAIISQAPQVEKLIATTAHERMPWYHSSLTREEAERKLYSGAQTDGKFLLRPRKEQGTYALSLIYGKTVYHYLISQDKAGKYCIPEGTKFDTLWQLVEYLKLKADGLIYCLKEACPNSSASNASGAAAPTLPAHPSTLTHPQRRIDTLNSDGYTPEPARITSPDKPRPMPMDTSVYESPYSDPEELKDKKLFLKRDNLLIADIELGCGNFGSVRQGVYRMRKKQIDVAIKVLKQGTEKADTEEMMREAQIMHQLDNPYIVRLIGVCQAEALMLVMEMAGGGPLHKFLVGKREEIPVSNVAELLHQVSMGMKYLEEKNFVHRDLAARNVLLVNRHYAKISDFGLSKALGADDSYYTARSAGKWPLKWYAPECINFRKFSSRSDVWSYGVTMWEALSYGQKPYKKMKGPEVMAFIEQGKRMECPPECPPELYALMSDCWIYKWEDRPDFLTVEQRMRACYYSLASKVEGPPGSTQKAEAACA
Nature of the data set: Inhibition of ZAP.

The target in data set [14] is Tyrosine-protein kinase SYK (Homo sapiens, UniProt P43405). Nature of the data set: Inhibition of Syk.
Data set [15] concerns the target Protein kinase C beta type (Homo sapiens, UniProt P05771). The experiment in a line: Inhibition of PKCbeta.
In data set [16] the target is Epidermal growth factor receptor (Homo sapiens, UniProt P00533).
Data set [17] addresses Tyrosine-protein kinase Lck (Homo sapiens, UniProt P06239).

A value given as a limit tells only on which side of the number the result lay.

T1 sequence (P12931 2-536 limits assumed): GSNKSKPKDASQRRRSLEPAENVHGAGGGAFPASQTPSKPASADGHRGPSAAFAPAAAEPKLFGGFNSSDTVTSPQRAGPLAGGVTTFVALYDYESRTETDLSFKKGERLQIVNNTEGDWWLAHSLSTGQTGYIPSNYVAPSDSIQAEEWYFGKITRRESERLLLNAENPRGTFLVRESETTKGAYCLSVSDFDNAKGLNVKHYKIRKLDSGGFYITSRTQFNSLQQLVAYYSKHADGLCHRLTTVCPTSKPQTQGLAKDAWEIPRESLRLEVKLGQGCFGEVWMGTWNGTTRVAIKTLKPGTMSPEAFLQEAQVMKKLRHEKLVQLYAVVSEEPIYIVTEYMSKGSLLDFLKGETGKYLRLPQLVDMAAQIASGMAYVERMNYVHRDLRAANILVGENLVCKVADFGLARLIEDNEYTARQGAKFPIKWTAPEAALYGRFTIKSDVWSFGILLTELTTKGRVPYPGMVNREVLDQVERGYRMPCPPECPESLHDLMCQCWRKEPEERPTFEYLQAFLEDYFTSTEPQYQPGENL
T2 sequence (Q28705 whole entry): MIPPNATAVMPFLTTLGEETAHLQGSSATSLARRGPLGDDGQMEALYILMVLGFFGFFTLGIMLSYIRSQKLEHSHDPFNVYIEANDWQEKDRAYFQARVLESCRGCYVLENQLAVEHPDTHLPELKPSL
Tyrosine-protein kinase Lck, sequence (P06239 whole entry): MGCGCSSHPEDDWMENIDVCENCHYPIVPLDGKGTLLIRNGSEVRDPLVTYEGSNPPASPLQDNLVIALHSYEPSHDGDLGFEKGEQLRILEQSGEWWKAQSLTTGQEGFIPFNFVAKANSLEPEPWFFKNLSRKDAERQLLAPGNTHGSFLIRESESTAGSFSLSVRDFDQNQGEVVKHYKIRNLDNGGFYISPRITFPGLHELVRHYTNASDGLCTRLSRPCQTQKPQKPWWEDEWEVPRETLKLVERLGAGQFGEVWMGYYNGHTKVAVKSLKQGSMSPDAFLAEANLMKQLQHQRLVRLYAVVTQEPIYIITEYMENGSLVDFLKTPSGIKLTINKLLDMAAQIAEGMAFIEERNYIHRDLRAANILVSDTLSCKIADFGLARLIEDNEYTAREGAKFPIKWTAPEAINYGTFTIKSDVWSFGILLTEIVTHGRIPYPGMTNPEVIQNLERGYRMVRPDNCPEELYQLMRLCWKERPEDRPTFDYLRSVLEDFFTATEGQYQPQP
Protein kinase C beta type, sequence (P05771 whole entry): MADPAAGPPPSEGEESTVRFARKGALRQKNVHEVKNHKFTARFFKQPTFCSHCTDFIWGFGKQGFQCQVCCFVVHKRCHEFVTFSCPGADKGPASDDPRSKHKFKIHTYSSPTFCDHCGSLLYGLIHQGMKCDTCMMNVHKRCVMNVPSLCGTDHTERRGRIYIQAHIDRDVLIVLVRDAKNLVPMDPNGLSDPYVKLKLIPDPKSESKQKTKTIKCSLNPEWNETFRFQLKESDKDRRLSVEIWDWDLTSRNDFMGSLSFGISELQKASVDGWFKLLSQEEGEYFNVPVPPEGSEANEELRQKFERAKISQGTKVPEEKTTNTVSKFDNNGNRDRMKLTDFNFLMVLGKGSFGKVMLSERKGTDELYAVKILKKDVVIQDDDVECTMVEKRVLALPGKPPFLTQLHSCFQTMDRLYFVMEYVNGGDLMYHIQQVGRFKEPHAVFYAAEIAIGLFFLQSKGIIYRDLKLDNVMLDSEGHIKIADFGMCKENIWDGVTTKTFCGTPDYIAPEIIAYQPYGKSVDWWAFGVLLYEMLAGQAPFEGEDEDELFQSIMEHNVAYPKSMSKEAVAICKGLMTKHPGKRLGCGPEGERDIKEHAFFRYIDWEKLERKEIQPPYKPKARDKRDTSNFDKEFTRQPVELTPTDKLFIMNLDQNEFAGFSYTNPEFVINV
Epidermal growth factor receptor, sequence (P00533 whole entry): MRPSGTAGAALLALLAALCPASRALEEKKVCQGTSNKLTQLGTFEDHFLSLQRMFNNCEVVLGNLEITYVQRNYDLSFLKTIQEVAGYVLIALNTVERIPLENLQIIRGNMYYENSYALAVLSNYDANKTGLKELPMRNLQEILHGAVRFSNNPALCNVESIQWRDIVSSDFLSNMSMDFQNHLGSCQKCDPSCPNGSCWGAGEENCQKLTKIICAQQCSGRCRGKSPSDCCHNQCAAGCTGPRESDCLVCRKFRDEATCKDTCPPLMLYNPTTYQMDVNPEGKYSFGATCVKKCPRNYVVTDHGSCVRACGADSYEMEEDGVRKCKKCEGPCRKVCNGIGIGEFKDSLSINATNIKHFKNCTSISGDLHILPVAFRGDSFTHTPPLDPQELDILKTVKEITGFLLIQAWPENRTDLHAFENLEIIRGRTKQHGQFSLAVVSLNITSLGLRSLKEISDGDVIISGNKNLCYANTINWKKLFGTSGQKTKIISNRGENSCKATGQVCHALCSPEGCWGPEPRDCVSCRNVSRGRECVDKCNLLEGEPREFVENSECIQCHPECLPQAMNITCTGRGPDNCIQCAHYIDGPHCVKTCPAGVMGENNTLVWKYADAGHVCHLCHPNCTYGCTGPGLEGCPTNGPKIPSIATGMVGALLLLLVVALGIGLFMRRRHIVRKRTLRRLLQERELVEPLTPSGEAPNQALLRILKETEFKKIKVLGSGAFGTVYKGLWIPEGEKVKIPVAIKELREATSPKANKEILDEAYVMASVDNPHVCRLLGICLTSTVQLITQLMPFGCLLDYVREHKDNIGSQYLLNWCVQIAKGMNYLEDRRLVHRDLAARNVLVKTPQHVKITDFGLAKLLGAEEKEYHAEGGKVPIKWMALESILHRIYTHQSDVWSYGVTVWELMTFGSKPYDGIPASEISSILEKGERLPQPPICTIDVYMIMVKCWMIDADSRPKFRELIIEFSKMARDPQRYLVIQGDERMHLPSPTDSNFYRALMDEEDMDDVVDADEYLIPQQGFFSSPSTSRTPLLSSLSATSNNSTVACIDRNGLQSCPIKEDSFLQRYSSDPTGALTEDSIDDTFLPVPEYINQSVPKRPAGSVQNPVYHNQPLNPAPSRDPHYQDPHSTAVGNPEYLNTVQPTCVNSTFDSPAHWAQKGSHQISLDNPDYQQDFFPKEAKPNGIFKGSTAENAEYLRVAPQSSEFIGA
Vascular endothelial growth factor receptor 2, sequence (P35968 whole entry): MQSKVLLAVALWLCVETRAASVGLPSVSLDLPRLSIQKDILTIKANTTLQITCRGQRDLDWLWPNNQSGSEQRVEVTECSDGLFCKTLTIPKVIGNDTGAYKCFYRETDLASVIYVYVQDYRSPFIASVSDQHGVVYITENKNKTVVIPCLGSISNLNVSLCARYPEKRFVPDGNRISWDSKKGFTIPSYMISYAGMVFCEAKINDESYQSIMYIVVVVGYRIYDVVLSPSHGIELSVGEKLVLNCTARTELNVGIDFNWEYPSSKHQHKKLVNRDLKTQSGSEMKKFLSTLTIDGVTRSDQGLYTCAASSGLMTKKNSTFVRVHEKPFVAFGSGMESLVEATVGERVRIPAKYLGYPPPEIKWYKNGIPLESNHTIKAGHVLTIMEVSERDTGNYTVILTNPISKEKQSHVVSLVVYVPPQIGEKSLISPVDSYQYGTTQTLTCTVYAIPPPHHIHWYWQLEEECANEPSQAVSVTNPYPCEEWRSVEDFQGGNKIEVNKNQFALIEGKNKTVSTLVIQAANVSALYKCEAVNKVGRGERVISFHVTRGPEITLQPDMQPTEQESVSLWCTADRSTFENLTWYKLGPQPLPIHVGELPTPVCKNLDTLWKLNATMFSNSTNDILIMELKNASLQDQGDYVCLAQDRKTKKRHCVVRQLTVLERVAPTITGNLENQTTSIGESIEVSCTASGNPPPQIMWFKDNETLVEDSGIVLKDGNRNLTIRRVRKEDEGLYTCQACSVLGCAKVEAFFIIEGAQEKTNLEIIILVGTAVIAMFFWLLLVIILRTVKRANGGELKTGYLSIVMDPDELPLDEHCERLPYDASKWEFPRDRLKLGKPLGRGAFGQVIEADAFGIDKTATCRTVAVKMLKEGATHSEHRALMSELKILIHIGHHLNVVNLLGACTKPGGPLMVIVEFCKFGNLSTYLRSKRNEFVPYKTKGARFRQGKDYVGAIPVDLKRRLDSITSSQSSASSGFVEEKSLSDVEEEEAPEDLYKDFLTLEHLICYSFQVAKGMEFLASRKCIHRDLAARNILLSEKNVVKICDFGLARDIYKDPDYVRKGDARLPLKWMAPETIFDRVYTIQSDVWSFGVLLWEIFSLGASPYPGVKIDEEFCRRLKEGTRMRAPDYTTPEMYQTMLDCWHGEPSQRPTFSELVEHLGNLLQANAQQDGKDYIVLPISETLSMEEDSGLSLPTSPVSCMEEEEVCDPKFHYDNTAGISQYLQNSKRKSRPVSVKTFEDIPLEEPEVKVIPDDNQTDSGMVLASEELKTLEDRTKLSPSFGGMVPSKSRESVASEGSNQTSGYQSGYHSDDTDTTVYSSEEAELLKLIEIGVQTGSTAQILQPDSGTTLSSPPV

The compound `COc1cc(Nc2nn3c(N[C@@H](CO)Cc4ccccc4)cc(C4CC4)nc3c2C(N)=O)cc(OC)c1` showed an IC50 in [1] of 12 nM. That is a double-digit nanomolar value.

`COc1cc(Nc2nn3c(N[C@H](CO)C(C)C)cc(C)nc3c2C(N)=O)cc(OC)c1`: the IC50 in data set [1] is 1210 nM.

For the compound `COc1cc(Nc2nn3c(NCC(C)(C)N)cc(C)nc3c2C(N)=O)cc(OC)c1`, the IC50 worked out at 175 nM in data set [1] and 900 nM in [2]. The compound further came in with an inhibition at 10 µM on IKr channel [3] of 90.7%.

For `COc1cc(Nc2nn3c(N[C@@H](CO)C(C)C)cc(C(C)C)nc3c2C(N)=O)cc(OC)c1`, the midpoint of inhibition in [1], the IC50, lay at 41 nM. This compound had an inhibition at 30 µM against IKr channel [4] of 14.6%.

`COc1cc(Nc2nn3c(N[C@@H](CO)C(C)C)cc(C)nc3c2C(N)=O)cc(OC)c1` returned an IC50 in data set [1] of 432 nM.

Turning to `COc1cc(Nc2nn3c(NC[C@@H](C)O)cc(C)nc3c2C(N)=O)cc(OC)c1`, the IC50 in data set [1] was 6690 nM.

Consider `COc1cc(Nc2nn3c(N4CCC[C@H]4CO)cc(C4CC4)nc3c2C(N)=O)cc(OC)c1`, for which the IC50 in data set [1] was found to be 25 nM.

Regarding `COc1cc(Nc2nn3c(NC[C@H](C)N)cc(C)nc3c2C(N)=O)cc(OC)c1`, the midpoint of inhibition in [1], the IC50, lay at 2990 nM. This compound returned an inhibition at 10 µM at IKr channel [3] of 99.1%.

As for `COc1cc(Nc2nn3c(N[C@@H](CO)C(C)C)cc(C4CC4)nc3c2C(N)=O)cc(OC)c1`, the IC50 in data set [1] was 8 nM; in [2], 100 nM. Also, the concentration at 1 h in data set [5] stood at 346 ng/mL; in data set [6], 126 ng/g. The Kp at 1 h in data set [7] turned out to be 0.4.

In the case of `COc1cc(Nc2nn3c(N[C@H](CO)Cc4ccccc4)cc(C4CC4)nc3c2C(N)=O)cc(OC)c1`, the IC50 was > 10000 nM in [8]; 3 nM in data set [1]; 100 nM in data set [2]; > 10000 nM in data set [13]; > 10000 nM in data set [14]; > 10000 nM in [15]. Further, the IC50 was found to be 2400 nM in data set [16] and 7 nM in [17]. Testing at 30 µM against IKr channel [4] gave an inhibition of 23.4%. In addition, the concentration at 1 h in [5] is 273 ng/mL; in [6], 256 ng/g. The Kp at 1 h in data set [7] amounted to 0.9. In addition, in data set [9], the AUC(0-inf) turned out to be 1990 ng·h/mL. Moreover, the half-life in data set [10] came out at 22 min. Besides, the clearance in data set [11] stood at 25 mL/min/kg. Also, in data set [12], the Vd turned out to be 0.53 L/kg.

In data set [1], `COc1cc(Nc2nn3c(N[C@@H](CO)C(C)C)cc(-c4ccccc4)nc3c2C(N)=O)cc(OC)c1` returned an IC50 of 68 nM. At IKr channel [4], this compound returned an inhibition at 30 µM of 12.4%.

`COc1cc(Nc2nn3c(N[C@H](CO)Cc4cccnc4)cc(C4CC4)nc3c2C(N)=O)cc(OC)c1`: the IC50 came out at 5 nM in data set [1] and 100 nM in data set [2]. The concentration at 1 h in [5] turned out to be 81 ng/mL.

`COc1cc(Nc2nn3c(N4CCC[C@@H]4CO)cc(C4CC4)nc3c2C(N)=O)cc(OC)c1` returned an IC50 in data set [1] of 9 nM. Testing at 30 µM against IKr channel [4] gave an inhibition of 14.2%.

With `COc1cc(Nc2nn3c(NC[C@H](C)O)cc(C)nc3c2C(N)=O)cc(OC)c1`, the IC50 in data set [1] amounted to 9200 nM. This counts as single-digit micromolar.

On to `COc1cc(Nc2nn3c(N[C@H](CO)Cc4c[nH]c5ccccc45)cc(C4CC4)nc3c2C(N)=O)cc(OC)c1`, for which the IC50 in data set [1] amounted to 5 nM; in data set [2] it was 500 nM. This compound registered an inhibition at 30 µM on IKr channel [4] of 5.4%. The concentration at 1 h was found to be 80 ng/mL in data set [5] and 89 ng/g in data set [6]. Moreover, the Kp at 1 h in data set [7] stood at 1.1.

With `COc1cc(Nc2nn3c(N[C@@H](C)CO)cc(C)nc3c2C(N)=O)cc(OC)c1`, in [1], the half-inhibitory concentration (IC50) worked out at 3480 nM.

Compound `COc1cc(Nc2nn3c(NC[C@@H](C)N)cc(C)nc3c2C(N)=O)cc(OC)c1` showed an IC50 in data set [1] of 408 nM. The compound also had an inhibition at 10 µM against IKr channel [3] of 47.9%.
